For experiment [1], the target named is T1, G protein-coupled receptor kinase 6 (Homo sapiens, UniProt P43250). Kind of experiment: Inhibition of recombinant full-length human GRK6 using casein as substrate measured after 80 mins in presence of [gamma33P]ATP by radiometric scintillation counting method.
The target of the next experiment is T2, Aurora kinase A (Homo sapiens, UniProt O14965).
T2 sequence (O14965 whole entry): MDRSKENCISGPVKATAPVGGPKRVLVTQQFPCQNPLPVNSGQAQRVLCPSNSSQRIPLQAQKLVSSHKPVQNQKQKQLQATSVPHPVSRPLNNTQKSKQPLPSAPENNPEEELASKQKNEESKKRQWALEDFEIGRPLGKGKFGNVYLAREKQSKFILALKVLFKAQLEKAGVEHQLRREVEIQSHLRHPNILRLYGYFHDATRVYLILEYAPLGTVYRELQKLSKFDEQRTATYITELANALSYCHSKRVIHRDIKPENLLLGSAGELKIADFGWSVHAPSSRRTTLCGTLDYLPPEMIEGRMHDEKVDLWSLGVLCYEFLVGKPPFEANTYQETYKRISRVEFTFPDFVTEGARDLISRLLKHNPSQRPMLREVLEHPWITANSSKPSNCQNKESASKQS
As to the kind of experiment: Inhibition of recombinant full length human Aurora A using LRRASLG as substrate incubated for 40 mins in presence of [gamma-33ATP] by radiometric scintillation counting method.

In experiment [2] the target is Insulin-like growth factor 1 receptor (Homo sapiens, UniProt P08069). Kind of experiment: Inhibition of recombinant human IGF-1R (959 to end residues) using KKKSPGEYVNIEF as substrate incubated for 40 mins in presence of [gamma-33ATP] by radiometric scintillation counting method.
Insulin-like growth factor 1 receptor, sequence (P08069 31-736 limits assumed): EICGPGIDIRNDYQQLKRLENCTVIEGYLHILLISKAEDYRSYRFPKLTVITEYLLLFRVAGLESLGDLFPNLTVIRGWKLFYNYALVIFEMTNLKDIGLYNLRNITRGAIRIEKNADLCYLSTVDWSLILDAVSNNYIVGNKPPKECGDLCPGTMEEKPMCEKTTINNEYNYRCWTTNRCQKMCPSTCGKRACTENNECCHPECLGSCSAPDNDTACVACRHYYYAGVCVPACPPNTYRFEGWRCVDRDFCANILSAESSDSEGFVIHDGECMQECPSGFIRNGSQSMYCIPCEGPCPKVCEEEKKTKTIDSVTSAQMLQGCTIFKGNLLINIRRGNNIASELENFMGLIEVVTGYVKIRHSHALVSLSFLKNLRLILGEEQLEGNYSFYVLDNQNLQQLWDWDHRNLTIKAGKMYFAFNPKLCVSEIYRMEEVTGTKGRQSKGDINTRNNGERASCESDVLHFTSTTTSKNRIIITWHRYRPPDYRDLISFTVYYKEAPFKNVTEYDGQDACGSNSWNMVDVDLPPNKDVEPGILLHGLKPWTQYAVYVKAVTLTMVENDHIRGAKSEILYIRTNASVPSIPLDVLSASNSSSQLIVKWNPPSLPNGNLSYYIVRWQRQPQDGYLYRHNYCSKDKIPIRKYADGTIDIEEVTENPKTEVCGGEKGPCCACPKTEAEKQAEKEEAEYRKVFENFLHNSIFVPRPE
Insulin-like growth factor 1 receptor, sequence (P08069 741-1367 limits assumed): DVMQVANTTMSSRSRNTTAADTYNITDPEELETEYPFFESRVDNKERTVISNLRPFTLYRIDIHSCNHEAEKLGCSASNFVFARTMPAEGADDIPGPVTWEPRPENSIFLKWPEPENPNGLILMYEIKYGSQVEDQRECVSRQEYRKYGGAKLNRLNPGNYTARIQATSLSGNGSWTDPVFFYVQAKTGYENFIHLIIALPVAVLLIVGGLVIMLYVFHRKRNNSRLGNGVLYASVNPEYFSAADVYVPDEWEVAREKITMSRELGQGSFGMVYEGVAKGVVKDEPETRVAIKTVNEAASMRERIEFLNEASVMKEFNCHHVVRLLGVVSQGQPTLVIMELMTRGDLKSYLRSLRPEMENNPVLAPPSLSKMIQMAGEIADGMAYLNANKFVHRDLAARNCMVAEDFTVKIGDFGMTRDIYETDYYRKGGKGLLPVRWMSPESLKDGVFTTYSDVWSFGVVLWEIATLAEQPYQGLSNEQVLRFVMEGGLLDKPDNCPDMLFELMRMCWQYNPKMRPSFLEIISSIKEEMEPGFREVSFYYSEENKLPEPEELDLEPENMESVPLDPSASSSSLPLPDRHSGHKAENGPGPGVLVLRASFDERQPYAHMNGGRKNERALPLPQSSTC
Experiment [3] deals with T1, G protein-coupled receptor kinase 6. Kind of experiment: Binding affinity to FLAG-tagged GRK6 in human KMS11 cells incubated for […] by ITDR assay. In kind it is cell-based, KMS-11.

The structures appear in SMILES notation.

T1 sequence (P43250 whole entry): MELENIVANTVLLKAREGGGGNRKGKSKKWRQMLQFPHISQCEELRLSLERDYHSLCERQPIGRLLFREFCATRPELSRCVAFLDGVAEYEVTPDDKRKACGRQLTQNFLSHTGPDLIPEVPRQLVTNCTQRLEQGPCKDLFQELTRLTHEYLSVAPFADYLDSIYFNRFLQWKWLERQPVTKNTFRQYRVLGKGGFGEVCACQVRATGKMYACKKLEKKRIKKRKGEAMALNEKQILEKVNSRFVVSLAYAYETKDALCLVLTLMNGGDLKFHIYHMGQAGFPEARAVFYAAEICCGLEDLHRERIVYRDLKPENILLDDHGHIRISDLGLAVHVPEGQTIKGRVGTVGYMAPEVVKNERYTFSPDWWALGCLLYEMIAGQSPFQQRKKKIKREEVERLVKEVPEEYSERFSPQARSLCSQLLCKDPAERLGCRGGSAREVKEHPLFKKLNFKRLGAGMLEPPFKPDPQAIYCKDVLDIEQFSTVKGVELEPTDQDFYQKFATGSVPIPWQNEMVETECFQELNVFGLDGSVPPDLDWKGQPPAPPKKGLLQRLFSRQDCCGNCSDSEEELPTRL

Take `CCc1cc(Nc2nc(N[C@@H](C)c3ccc(F)cc3)nc3ccccc23)n[nH]1`: the IC50 in experiment [1] was 120 nM; on Aurora kinase A, 11 nM. The matching figures for `CCc1cc(Nc2nc(NCCc3ccc(F)cc3)nc3ccccc23)n[nH]1`: 190 nM and 41 nM. The matching figures for `CCc1cc(Nc2nc(N[C@@H](C)c3ccc(Cl)cn3)nc3cccc(OC)c23)n[nH]1`: 3.5 nM and 22000 nM. Take `CCc1cc(Nc2nc(NC3(c4ccc(Cl)cc4)CC3)nc3ccccc23)n[nH]1`: in experiment [1], the IC50 was 280 nM. In the case of `CCc1cc(Nc2nc(NCc3ccc(Cl)cc3OC)nc3ccccc23)n[nH]1`, the IC50 in experiment [1] was found to be 40 nM. Still for that read-out and setting: under `CCc1cc(Nc2nc(N[C@@H](C)c3ccc(OC)cc3)nc3ccccc23)n[nH]1` stands 290 nM. Still for that read-out and setting: under `CCOc1ccc(Nc2nc(N[C@@H](C)c3ccc(F)cn3)nc3cccc(F)c23)cn1` stands over 10000 nM. Still for that read-out and setting: under `CCc1cc(Nc2nc(N[C@@H](C)c3ccc(Cl)cc3)nc3ccccc23)n[nH]1` stands 70 nM; under `CCc1cc(Nc2nc(N[C@@H](C)C3CCCCC3)nc3ccccc23)n[nH]1`, 960 nM. Regarding `CCc1cc(Nc2nc(NCc3ccc(Cl)cc3)nc3cccc(OC)c23)n[nH]1`, the half-inhibitory concentration (IC50) in experiment [1] was 16 nM; at Aurora kinase A, over 10000 nM; in experiment [2], over 10000 nM; in experiment [3], 2000 nM.

Turning to `CCc1cc(Nc2nc(N[C@@H](C)c3ccc(F)cc3)nc3cc(Cl)ccc23)n[nH]1`, the IC50 in experiment [1] is 440 nM. In the case of `CCc1cc(Nc2nc(N[C@@H](C)c3ccc(F)cn3)nc3cccc(F)c23)n[nH]1`, the IC50 in experiment [1] amounted to 29 nM; at Aurora kinase A it was 25 nM. With `CCc1cc(Nc2nc(NCCc3ccccc3)nc3cccc(F)c23)n[nH]1`, the IC50 in experiment [1] came out at 20 nM. On the same count and under the same terms, under `CCc1cc(Nc2nc(N[C@@H](C)c3ccc(F)cc3)nc3ccc(F)cc23)n[nH]1` stands 160 nM. For the molecule `CCc1cc(Nc2nc(N[C@@H](C)c3ccc(F)cc3)nc3cccc(F)c23)n[nH]1`, the IC50 stood at 41 nM in experiment [1] and 51 nM on Aurora kinase A. Consider `CCc1cc(Nc2nc(N[C@@H](C)c3ncc(F)cn3)nc3cccc(F)c23)n[nH]1`, for which the IC50 in experiment [1] worked out at 230 nM; on Aurora kinase A, 80 nM. Turning to `CCc1cc(Nc2nc(N[C@@H](C)c3ccc(F)cn3)nc3cccc(C)c23)n[nH]1`, the IC50 amounted to 11 nM in experiment [1], 330 nM on Aurora kinase A and 610 nM in experiment [3]. Turning to `CCc1cc(Nc2nc(NCCc3ccc(F)cc3)nc3cccc(F)c23)n[nH]1`, the IC50 in experiment [1] is 110 nM; on Aurora kinase A it was 180 nM.

Consider `CCc1cc(Nc2nc(NCCc3ccc(F)cc3)nc3ccc(F)cc23)n[nH]1`, for which the IC50 in experiment [1] was found to be 310 nM. With `CCc1cc(Nc2nc(N[C@@H](C)c3ccc(C#N)cn3)nc3cccc(F)c23)n[nH]1`, the IC50 in experiment [1] came to 91 nM; on Aurora kinase A, 220 nM. Regarding `CCc1cc(Nc2nc(N[C@@H](C)c3ccc(F)cc3)nc3cc(F)ccc23)n[nH]1`, the IC50 in experiment [1] was 100 nM. With `CCc1cc(Nc2nc(N[C@H](C)c3ccc(F)cc3)nc3ccccc23)n[nH]1`, the IC50 in experiment [1] turned out to be 1400 nM.

Take `CCc1cc(Nc2nc(NCc3ccc(F)cc3)nc3ccccc23)n[nH]1`: the IC50 in experiment [1] worked out at 250 nM. In the case of `CCc1cc(Nc2nc(NCc3ccc(Cl)cc3)nc3cccc(C)c23)n[nH]1`, the figures for the IC50 (in experiment [1]; at Aurora kinase A; in experiment [2]) were 27 nM, 1200 nM and over 10000 nM, respectively. Regarding `Fc1cccc2nc(NCCc3ccccc3)nc(Nc3cc[nH]n3)c12`, the IC50 in experiment [1] came out at 2500 nM. Regarding `Fc1cccc2nc(NCCc3ccccc3)nc(Nc3ccon3)c12`, the IC50 in experiment [1] was over 10000 nM. Turning to `CCc1cc(Nc2nc(NCCc3ccccc3)nc3cccc(OC)c23)n[nH]1`, the IC50 in experiment [1] was 10 nM; on Aurora kinase A, over 10000 nM; in experiment [2], over 10000 nM. For the molecule `CCc1cc(Nc2nc(NCCc3ccc(F)cc3)nc3cc(F)ccc23)n[nH]1`, the IC50 in experiment [1] stood at 180 nM.

Consider `CCc1cc(Nc2nc(NCCN3CCOCC3)nc3cccc(F)c23)n[nH]1`, for which, in experiment [1], the IC50 came out at 1400 nM. Same read-out and setting: the figure for `CCc1cc(Nc2nc(N[C@@H](C)c3cccc(F)c3)nc3ccccc23)n[nH]1` is 340 nM; for `CCc1cc(Nc2nc(N[C@@H](C)c3ccc(F)cc3)nc3ccc(OC)cc23)n[nH]1` it is 140 nM. Take `CCc1cc(Nc2nc(NCCc3ccc(F)cc3)nc3ccc(OC)cc23)n[nH]1`: the IC50 in experiment [1] was 460 nM. Same read-out and setting: the figure for `CCc1cc(Nc2nc(NCCc3ccc(F)cc3)nc3cc(Cl)ccc23)n[nH]1` is 1100 nM. Same read-out and setting: under `CCn1cnc(Nc2nc(N[C@@H](C)c3ccc(F)cn3)nc3cccc(F)c23)c1` stands 280 nM. Turning to `CCc1cc(Nc2nc(NCc3ccc(Cl)cc3OC)nc3cccc(C)c23)n[nH]1`, the IC50 in experiment [1] turned out to be 6 nM; on Aurora kinase A, 1200 nM; in experiment [3], 170 nM. As to `CCc1cc(Nc2nc(N[C@@H](C)c3ccc(C)cc3)nc3cccc(F)c23)n[nH]1`, the IC50 in experiment [1] was 27 nM; on Aurora kinase A it was 75 nM.

These data come from ChEMBL document CHEMBL4808217, “Design, Synthesis, and Characterization of 4-Aminoquinazolines as Potent Inhibitors of the G Protein-Coupled Receptor Kinase 6 (GRK6) for the Treatment of Multiple Myeloma” (J Med Chem, 2021).
